Results as given in patent US11291719B2, “Methods and compositions for modulating Akt3” (Augusta University Research Institute, Inc., priority 2016, dated 2022).

Columns and labels:
[1] = tested on: non-Treg CD4 and CD8 T cells; assay: Proliferation of non-Treg CD4 and CD8 T cells; type: cell-based; conditions: data not shown
Akt3 = biological target: T1, Akt3 (Homo sapiens, UniProt Q9Y243); assay: Western blot of Akt3 in Tconv cells during iTreg induction; type: cell-based; conditions: TGF-β induced
T1 construct: endogenous in cells
T1 sequence (Q9Y243 whole entry): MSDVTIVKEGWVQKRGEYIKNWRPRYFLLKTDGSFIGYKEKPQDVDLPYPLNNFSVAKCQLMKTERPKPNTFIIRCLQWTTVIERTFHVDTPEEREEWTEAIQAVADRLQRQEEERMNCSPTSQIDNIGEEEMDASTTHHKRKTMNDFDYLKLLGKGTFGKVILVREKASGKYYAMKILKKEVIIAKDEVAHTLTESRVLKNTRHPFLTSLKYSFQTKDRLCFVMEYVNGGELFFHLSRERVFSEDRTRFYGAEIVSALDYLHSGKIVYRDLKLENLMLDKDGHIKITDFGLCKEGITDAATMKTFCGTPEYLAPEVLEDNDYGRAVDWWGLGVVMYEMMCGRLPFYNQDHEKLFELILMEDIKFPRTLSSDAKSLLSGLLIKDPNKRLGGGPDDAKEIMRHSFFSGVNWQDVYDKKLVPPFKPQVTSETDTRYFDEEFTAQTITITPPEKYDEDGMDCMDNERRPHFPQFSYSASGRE
Excerpt: FIG. 12 is a western blot showing the expression of FoxP3, pAkt3, Akt3, pAkt1, and Akt1 in activated Tconv cells induced with TGF-β and treated with various concentrations of mJJ64A.

**Q.** With `N#Cc1ccc2nccc(Nc3ccc(C(=O)Nc4ccc(Nc5ccncc5)cc4)cc3)c2c1` [Compound 2] as the compound, how does the “proliferation of non-Treg CD4 and CD8 T cells” value [1] read?
**A.** not

**Q.** And the “expression of Akt3 in Tconv cells during iTreg induction” value (Akt3)?
**A.** increased
